Here are results for three compounds from patent US20060142382A1, “Skin lightening composition” (priority 2002, published 2006).

For the test, the system named is Kwl:A-1 brown guinea pigs. Briefly: Pigmentation inhibitory effect: UVB-induced pigmentation in brown guinea pigs, L value (lightness) by color-difference meter. Type of test: in vivo, guinea pig. Particulars: 10 ml/kg; for Final day of the test L value: L value (lightness) of the irradiated site on final day (14 days), oral, twice a day, UVB on day 0, 2nd and 4th days; for ΔL value: L value on the observation day minus L value before irradiation, final day (14 days), oral twice a day, larger ΔL values show higher effect. The source says: Ultraviolet ray (UVB) irradiation time was examined using two female 6-week-old Kwl:A-1 brown guinea pigs (SPF). That is, one of the guinea pigs was fixed on the abdominal position, and three 2 cm×2 cm square ultraviolet ray irradiating sites were arranged in bilateral symmetry with the dorsal midline between, thus six sites in total. By shading the body except for the ultraviolet ray irradiating sites, an ultraviolet ray (UVB) was irradiated from a distance of 40 cm using five SE lamps (wavelength 250 to 350 nm, F[…]-E, manufactured by TOSHIBA). […] Examination was made by using five female 7-week-old Kwl:A-1 brown guinea pigs (SPF) in one group. That is, each of the guinea pigs was fixed on the abdominal position using a fixation plate on the respective ultraviolet ray irradiating days (on the day of the commencement of sample administration and on the 2nd and 4th days thereafter). One 2 cm×2 cm square arranged on the left or right side with the guinea pig dorsal midline between was used as the ultraviolet ray irradiating site, and the body was shaded except for the ultraviolet ray irradiating site. Two guinea pigs in one group were irradiated with an ultraviolet ray (LTVB) for 11 minutes and 30 seconds, and three guinea pigs in one group, from a distance of 40 cm using five SE lamps (wavelength 250 to 350 nm, F[…]·E, manufactured by TOSHIBA). During the testing period (14 days), each test sample was orally administered twice a day. Each sample solution was administered at a dose of 10 ml/kg. In this case, the administration was carried out after the ultraviolet ray irradiation on each ultraviolet ray irradiation day, or after the judgment on each pigmentation judging day. Before the irradiation on the day of the commencement of test sample administration and on the final day of the test, a ΔL value (L value on the observation day-L value before irradiation) was calculated by measuring L value (lightness) of the irradiated site using a color-difference meter (CR-300, manufactured by MINOLTA CAMERA).

SMILES strings stand for the structures.

`NC[C@H]1CC[C@H](C(=O)O)CC1` [Sample (2), tranexamic acid]: the “Final day of the test L value” came to 58.30 ± 1.20 and the ΔL value is reported as −3.76 ± 1.78.
Regarding `N[C@@H](CS)C(=O)O` [Sample (3), L-cysteine], the “Final day of the test L value” was 59.52 ± 3.10 and the ΔL value is given as −3.32 ± 1.70.
As for `O=C1O[C@H]([C@@H](O)CO)C(O)=C1O` [Sample (4), ascorbic acid], the “Final day of the test L value” is given as 57.35 ± 1.56 and the ΔL value was −4.76 ± 1.62.
